# Laboratory results: patent US6878713B2, “Generation triple-targeting, chiral, broad-spectrum antimicrobial 7-substituted piperidino-quinolone carboxylic acid derivatives, their preparation, compositions and use as medicaments” (Wockhardt Limited, priority 2001, dated 2005)
# Legend:
# [1] = system: Fluoroquinolone Sensitive Strains; assay: In-vitro antimicrobial test (MIC, two-fold serial agar dilution, NCCLS), Table 17; assay type: cell-based
# Procedure: The test method was in accordance with the standard NCCLS protocol (Methods for Dilution Antimicrobial Susceptibility Tests for Bacteria that grow Aerobicially, Approved Standards, M7-A5, Fifth Edition, January 2000).
# The antibacterial activities (minimum inhibitory concentration: MIC, […]) were determined by using the two-fold serial agar dilution method recommended by NCCLS. The media used for preculture and main culture were Tryptic Soya broth (Difco) and Mueller Hinton medium (Difco), respectively. The Mueller Hinton agar was supplemented with 5% sheep blood for streptococci. Overnight cultures were diluted with buffered saline (pH 7.2) to the final cell density of 5×10^6-10^7 CFU/ml, and each bacterial suspension was applied with a replicator (Denley's multipoint inoculator, UK) onto a series of Mueller-Hinton agar plates containing antibacterial agents at various concentrations. Final inoculum was approximately 10^4 CFU/spot. The plates were incubated for 18 hrs at 37° C. The MIC was defined as the lowest concentration of an antibacterial agent that inhibits the development of visible microbial growth on agar.
# [2] = Escherichia coli, ATCC25922, E. coli ATCC 25922
# [3] = Staphylococcus aureus, ATCC 25923 / MSSA, MSSA ATCC 25923
# [4] = Streptococcus pneumoniae, ATCC49619, S. pneumoniae ATCC 49619
Structure (SMILES),melting point,also measured
"COc1c(N2CCC(N)C(C)C2)c(F)cc2c(=O)c(C(=O)O)cn(C3CC3)c12 (centres unmarked) [Compound 1, 1-Cyclopropyl-6-fluoro-1,4-dihydro-8-methoxy-7-(4-amino-3-methyl-1-piperidinyl)-4-oxo-quinoline-3-carboxylic acid]",238 to 240 °C,"MIC [1, 2]: 0.05 µg/mL; MIC [1, 3]: 0.05 µg/mL; MIC [1, 4]: 0.2 µg/mL"
"CCOC(=O)NC1CCN(c2c(F)cc3c(=O)c(C(=O)O)cn(C4CC4)c3c2OC)CC1(C)C (centres unmarked) [Compound 30, 1-Cyclopropyl-6-fluoro-1,4-dihydro-8-methoxy-7-(4-carbethoxyamino-3,3-dimethyl-1-piperidinyl)-4-oxo-quinoline-3-carboxylic acid]",222 °C,"MIC [1, 2]: 0.05 µg/mL; MIC [1, 3]: 0.05 µg/mL; MIC [1, 4]: 0.1 µg/mL"
"CNC1C(C)CN(c2c(F)c(N)c3c(=O)c(C(=O)O)cn(C4CC4)c3c2OC)CC1C (centres unmarked) [Compound 83, 5-Amino-1-cyclopropyl-6-fluoro-1,4-dihydro-8-methoxy-7-(4-methylamino-3,5-dimethyl-1-piperidinyl)-4-oxo-quinoline-3-carboxylic acid]",224 to 226 °C,
"COc1c(N2CC(C)C(N)C(C)(C)C2)c(F)c(N)c2c(=O)c(C(=O)O)cn(C3CC3)c12 (centres unmarked) [Compound 87, 5-Amino-1-cyclopropyl-6-fluoro-1,4-dihydro-8-methoxy-7-(4-amino-3,3,5-trimethyl-1-piperidinyl)-4-oxo-quinoline-3-carboxylic acid]",248 to 252 °C,
"CNC1CCN(c2c(F)cc3c(=O)c(C(=O)O)cn(C4CC4)c3c2C)CC1C (centres unmarked) [Compound 113, 1-Cyclopropyl-6-fluoro-1,4-dihydro-8-methyl-7-(4-methylamino-3-methyl-1-piperidinyl)-4-oxo-quinoline-3-carboxylic acid]",233 to 235 °C,
"Cc1c(N2CCC(N(C)C)C(C)C2)c(F)cc2c(=O)c(C(=O)O)cn(C3CC3)c12 (centres unmarked) [Compound 114, 1-Cyclopropyl-6-fluoro-1,4-dihydro-8-methyl-7-(4-dimethylamino-3-methyl-1-piperidinyl)-4-oxo-quinoline-3-carboxylic acid]",221 °C,"MIC [1, 2]: 0.05 µg/mL; MIC [1, 3]: 0.05 µg/mL; MIC [1, 4]: 0.05 µg/mL"
"CCNC1CCN(c2c(F)cc3c(=O)c(C(=O)O)cn(C4CC4)c3c2C)CC1(C)C (centres unmarked) [Compound 115, 1-Cyclopropyl-6-fluoro-1,4-dihydro-8-methyl-7-(4-ethylamino-3,3-dimethyl-1-piperidinyl)-4-oxo-quinoline-3-carboxylic acid]",201 to 203 °C,
"Cc1c(N2CCC(N(C)C)C(C)(C)C2)c(F)cc2c(=O)c(C(=O)O)cn(C3CC3)c12 (centres unmarked) [Compound 116, 1-Cyclopropyl-6-fluoro-1,4-dihydro-8-methyl-7-(4-dimethylamino-3,3-dimethyl-1-piperidinyl)-4-oxo-quinoline-3-carboxylic acid]",209 to 210 °C,
"CCc1c(N2CCC(N)CC2)c(F)cc2c(=O)c(C(=O)O)cn(C3CC3)c12 [Compound 117, 1-Cyclopropyl-6-fluoro-8-ethyl-7-(4-amino-1-piperidinyl)-1,4-dihydro-4-oxo-quinoline-3-carboxylic acid]",248 to 249 °C,
"COc1c(N2CC(C)C(N)C(C)C2)c(F)cc2c(=O)c(C(=O)O)cn(C3CC3)c12 (centres unmarked) [Example 33, 1-cyclopropyl-6-fluoro-1,4-dihydro-8-methoxy-7-(4-amino-3,5-dimethyl-1-piperidinyl)-4-oxo-quinoline-3-carboxylic acid]",238 to 240 °C,
"COc1c(N2CC(C)C(N)C(C)C2)c(F)cc2c(=O)c(C(=O)O)cn(C3CC3)c12 (centres unmarked) [Example 34, 1-cyclopropyl-6-fluoro-1,4-dihydro-8-methoxy-7-(4-amino-3,5-dimethyl-1-piperidinyl)-4-oxo-quinoline-3-carboxylic acid]",200 to 204 °C,
"CCNC1C(C)CN(c2c(F)cc3c(=O)c(C(=O)O)cn(C4CC4)c3c2OC)CC1C (centres unmarked) [Example 38, 1-cyclopropyl-6-fluoro-1,4-dihydro-8-methoxy-7-(4-ethylamino-3,5-dimethyl-1-piperidinyl)-4-oxo-quinoline-3-carboxylic acid]",250 to 252 °C,
"CCNC1C(C)CN(c2c(F)cc3c(=O)c(C(=O)O)cn(C4CC4)c3c2OC)CC1C (centres unmarked) [Example 39, 1-cyclopropyl-6-fluoro-1,4-dihydro-8-methoxy-7-(4-ethylamino-3,5-dimethyl-1-piperidinyl)-4-oxo-quinoline-3-carboxylic acid]",250 to 255 °C,
"COc1c(N2CC(C)C(NC3CC3)C(C)C2)c(F)cc2c(=O)c(C(=O)O)cn(C3CC3)c12 (centres unmarked) [Example 41, 1-cyclopropyl-6-fluoro-1,4-dihydro-8-methoxy-7-(4-cyclopropylamino-3,5-dimethyl-1-piperidinyl)-4-oxo-quinoline-3-carboxylic acid]",240 to 242 °C,
"CCNC1C(C)CN(c2c(F)c(N)c3c(=O)c(C(=O)O)cn(C4CC4)c3c2OC)CC1C (centres unmarked) [Example 57, 5-amino-1-cyclopropyl-6-fluoro-1,4-dihydro-8-methoxy-7-(4-ethylamino-3,5-dimethyl-1-piperidinyl)-4-oxo-quinoline-3-carboxylic acid]",202 to 204 °C,
"CCNC1C(C)CN(c2c(F)c(N)c3c(=O)c(C(=O)O)cn(C4CC4)c3c2OC)CC1C (centres unmarked) [Example 58, 5-amino-1-cyclopropyl-6-fluoro-1,4-dihydro-8-methoxy-7-(4-ethylamino-3,5-dimethyl-1-piperidinyl)-4-oxo-quinoline-3-carboxylic acid]",255 to 258 °C,
"COc1c(N2CC(C)C(NC3CC3)C(C)C2)c(F)c(N)c2c(=O)c(C(=O)O)cn(C3CC3)c12 (centres unmarked) [Example 60, 5-Amino-1-cyclopropyl-6-fluoro-1,4-dihydro-8-methoxy-7-(4-cyclopropylamino-3,5-dimethyl-1-piperidinyl)-4-oxo-quinoline-3-carboxylic acid]",248 °C,

# Continued, in another order:
melting point,Structure (SMILES),also measured
178 °C (dec.),"COc1c(N2CCC(N(C)C)C(C)(C)C2)c(F)c(N)c2c(=O)c(C(=O)O)cn(C3CC3)c12 (centres unmarked) [Compound 76, 5-Amino-1-cyclopropyl-6-fluoro-1,4-dihydro-8-methoxy-7-(4-dimethylamino-3,3-dimethyl-1-piperidinyl)-4-oxo-quinoline-3-carboxylic acid]",
210 °C (dec.),"CCC1(C)CN(c2c(F)c(N)c3c(=O)c(C(=O)O)cn(C4CC4)c3c2OC)CCC1N (centres unmarked) [Compound 77, 5-Amino-1-cyclopropyl-6-fluoro-1,4-dihydro-8-methoxy-7-(4-amino-3-ethyl-3-methyl-1-piperidinyl)-4-oxo-quinoline-3-carboxylic acid]",
164 to 166 °C,"CCC1(C)CN(c2c(F)c(N)c3c(=O)c(C(=O)O)cn(C4CC4)c3c2OC)CCC1NC (centres unmarked) [Compound 78, 5-Amino-1-cyclopropyl-6-fluoro-1,4-dihydro-8-methoxy-7-(4-methylamino-3-ethyl-3-methyl-1-piperidinyl)-4-oxo-quinoline-3-carboxylic acid]",
186 to 188 °C,"CCC1(C)CN(c2c(F)c(N)c3c(=O)c(C(=O)O)cn(C4CC4)c3c2OC)CCC1NC1CC1 (centres unmarked) [Compound 79, 5-Amino-1-cyclopropyl-6-fluoro-1,4-dihydro-8-methoxy-7-(4-cyclopropylamino-3-methyl-3-ethyl-1-piperidinyl)-4-oxo-quinoline-3-carboxylic acid]",
194 to 196 °C,"CCC1(C)CN(c2c(F)c(N)c3c(=O)c(C(=O)O)cn(C4CC4)c3c2OC)CCC1N(C)C (centres unmarked) [Compound 80, 5-Amino-1-cyclopropyl-6-fluoro-1,4-dihydro-8-methoxy-7-(4-dimethylamino-3-methyl-3-ethyl-1-piperidinyl)-4-oxo-quinoline-3-carboxylic acid]",
240 to 244 °C,"COc1c(N2CCC(O)C(C)C2)c(F)c(N)c2c(=O)c(C(=O)O)cn(C3CC3)c12 (centres unmarked) [Compound 135, 5-Amino-1-cyclopropyl-6-fluoro-1,4-dihydro-8-methoxy-7-(4-hydroxy-3-methyl-1-piperidinyl)-4-oxo-quinoline-3-carboxylic acid]",
188 to 190 °C,"CCC1CN(c2c(F)cc3c(=O)c(C(=O)O)cn(C4CC4)c3c2OC)CCC1O (centres unmarked) [Compound 136, 1-Cyclopropyl-6-fluoro-1,4-dihydro-8-methoxy-7-(4-hydroxy-3-ethyl-1-piperidinyl)-4-oxo-quinoline-3-carboxylic acid]",
217 to 219 °C,"CCC1CN(c2c(F)c(N)c3c(=O)c(C(=O)O)cn(C4CC4)c3c2OC)CCC1O (centres unmarked) [Compound 137, 5-Amino-1-cyclopropyl-6-fluoro-1,4-dihydro-8-methoxy-7-(4-hydroxy-3-ethyl-1-piperidinyl)-4-oxo-quinoline-3-carboxylic acid]",
248 to 250 °C (dec.),"COc1c(N2CC(C)C(N)C(C)C2)c(F)c(N)c2c(=O)c(C(=O)O)cn(C3CC3)c12 (centres unmarked) [Example 53, 5-Amino-1-cyclopropyl-6-fluoro-1,4-dihydro-8-methoxy-7-(4-amino-3,5-dimethyl-1-piperidinyl)-4-oxo-quinoline-3-carboxylic acid]",
